Results: patent US4347252A, “Rodenticidal 1-(3,5-bistrifluoromethylphenyl)-3-(4-t-butylpiperidino)prop-1-yne” (priority 1980, dated 1982)

Tests used:
Format in all cases: in vivo
[1] = system: mice (Mus musculus); experiment: Laboratory Feeding Tests on Mice in Pens, Test 3(a), poisoned bait alone; conditions: 0.1% by weight in bait
Description: (§1) Laboratory Feeding Tests on Mice in Pens
(§2) A bait comprising oatmeal, wholemeal flour and corn oil (plain bait) and a bait of similar composition but incorporating 0.1% by weight of the test compound used in Test 2 hereinbefore described (poisoned bait) were prepared and used in the following tests on mice (Mus musculus) housed in pens.
The poisoned bait alone was offered to 4 male and 4 female mice.

[2] = system: Wild Rats (Rattus norvegicus); experiment: Laboratory Simulated Field Test on Wild Rats in confinement; conditions: for Total bait eaten: poisoned + plain
Text: Laboratory Simulated Field Test on Wild Rats (Rattus norvegicus) in confinement
One male and nine female rats were given the choice of two feeding points, at each of which the animals were offered a bait consisting of medium oatmeal (95%) and wholemeal flour (5%) (plain bait). After a period of six days during which the plain bait was offered at both feeding points, the plain bait was replaced at one of the feeding points by a bait of the same composition in which 0.1% by weight of the test compound used in Test 2 hereinbefore described had been incorporated (poisoned bait), while the plain bait continued to be offered at the other feeding point.

[3] = system: mice (Mus musculus); experiment: Laboratory Feeding Tests on Mice in Pens, Test 3(b), choice of poisoned and plain bait
Description: as §1, §2
A choice of poisoned and plain bait was offered to groups of mice.

[4] = system: mice (laboratory strain); experiment: Acute Oral Toxicity in Mice (Laboratory Strain)
Description: Acute Oral Toxicity in Mice (Laboratory Strain)
Groups of mice were dosed orally with graded doses of the test compound in aqueous suspension and observed until there had been no deaths for at least three days. The acute oral LD50, that is to say the dose in mg/kg animal body weight necessary to kill 50% of the mice, was determined from the numbers of animals for each dose which died during the observation period by reference to published tables.

[5] = system: mice (Mus musculus); experiment: Field Test on Mice
Description: Field Test on Mice (Mus musculus)
(1) A non-toxic bait was laid at 3 mouse-infested sites and the amount of bait eaten was determined by weighing. (2) The non-toxic bait was then withdrawn and replaced by a similar bait in which was incorporated 0.1% by weight of the test compound used in Test 2 hereinbefore described (poisoned bait). The amount of poisoned bait which was eaten was similarly determined by weighing over a period of three weeks. (3) The poisoned bait was then withdrawn and replaced by the non-toxic bait and the amount of non-toxic bait which was eaten was also similarly determined by weighing. The results obtained are given in following Table 6, the degree of control being calculated by a comparison of the amounts of non-toxic bait which were eaten during the periods before and after use of the poisoned bait.

[6] = system: Warfarin-resistant rats (Rattus norvegicus); experiment: Laboratory Feeding Tests on Wild Rodents: rats; conditions: 0.1% by weight in bait
Text: Laboratory Feeding Tests on Wild Rodents
Warfarin-resistant rats (Rattus norvegicus) and mice (Mus musculus) from wild populations were fed, in the laboratory, on a bait consisting of coarse oatmeal (90%), wholemeal flour (5%) and corn oil (5%). After feeding for four days on this bait, it was replaced by a treated bait of the same composition, in which 0.1% by weight of the test compound 1-(3,5-bistrifluoromethylphenyl)-3-(4-tert-butylpiperidino)prop-1-yne hydrochloride had been incorporated.

Compound: CC(C)(C)C1CCN(CC#Cc2cc(C(F)(F)F)cc(C(F)(F)F)c2)CC1.Cl [1-(3,5-bistrifluoromethylphenyl)-3-(4-tert-butylpiperidino)prop-1-yne hydrochloride]
- Days to Death, Mean [1]: 5.5 days
- Mortality [1]: 100%
- Quantity of poisoned bait eaten ([1]; Day 1, 4 male and 4 female mice): 19.1 g
- Quantity of poisoned bait eaten ([1]; Day 2): 18.8 g
- Quantity of poisoned bait eaten ([1]; Day 3): 15.4 g
- Quantity of poisoned bait eaten ([1]; Days 4-7): 13.7 g
- Quantity of bait eaten, Feeding Point A, Poisoned bait ([2]; Day 1, 0.1% by weight in bait): 99.7 g
- Quantity of bait eaten, Feeding Point B, Plain bait ([2]; Day 1 of offering poisoned bait at Point A): 80.1 g
- Quantity of bait eaten, Feeding Point A, Poisoned bait ([2]; Day 2): 95.2 g
- Quantity of bait eaten, Feeding Point B, Plain bait ([2]; Day 2 of offering poisoned bait at Point A): 65.9 g
- Quantity of bait eaten, Feeding Point A, Poisoned bait ([2]; Day 3): 19.8 g
- Quantity of bait eaten, Feeding Point B, Plain bait ([2]; Day 3 of offering poisoned bait at Point A): 67.4 g
- Cumulative mortality ([2]; Day 4): 30%
- Quantity of bait eaten, Feeding Point A, Poisoned bait ([2]; Day 4): 5.1 g
- Quantity of bait eaten, Feeding Point B, Plain bait ([2]; Day 4 of offering poisoned bait at Point A): 38.1 g
- Quantity of bait eaten, Feeding Point A, Poisoned bait ([2]; Day 5): 1.8 g
- Quantity of bait eaten, Feeding Point B, Plain bait ([2]; Day 5 of offering poisoned bait at Point A): 27.7 g
- Cumulative mortality ([2]; Day 6): 60%
- Quantity of bait eaten, Feeding Point B, Plain bait ([2]; Day 6 of offering poisoned bait at Point A): 19.3 g
- Cumulative mortality ([2]; Day 7): 70%
- Quantity of bait eaten, Feeding Point B, Plain bait ([2]; Day 7 of offering poisoned bait at Point A): 4.0 g
- Cumulative mortality ([2]; Day 8): 80%
- Quantity of bait eaten, Feeding Point B, Plain bait ([2]; Day 8 of offering poisoned bait at Point A): 6.5 g
- Cumulative mortality ([2]; Day 9): 90%
- Quantity of bait eaten, Feeding Point A, Poisoned bait ([2]; Day 9): 1.3 g
- Quantity of bait eaten, Feeding Point B, Plain bait ([2]; Day 9 of offering poisoned bait at Point A): 3.7 g
- Quantity of bait eaten, Feeding Point A, Poisoned bait ([2]; Day 11): 0.7 g
- Quantity of bait eaten, Feeding Point B, Plain bait ([2]; Day 11 of offering poisoned bait at Point A): 0.7 g
- Cumulative mortality ([2]; Day 12): 100%
- Total bait eaten ([2]; Day 1): 179.8 g
- Total bait eaten ([2]; Day 2): 161.1 g
- Total bait eaten ([2]; Day 3): 97.2 g
- Total bait eaten ([2]; Day 4): 43.2 g
- Total bait eaten ([2]; Day 5): 29.5 g
- Total bait eaten ([2]; Day 6): 19.3 g
- Total bait eaten ([2]; Day 7): 4.0 g
- Total bait eaten ([2]; Day 8): 6.5 g
- Total bait eaten ([2]; Day 9): 5.0 g
- Total bait eaten ([2]; Day 11): 1.4 g
- Mortality ([3]; 15 mice in pen): 93.7%
- Quantity of poisoned bait eaten ([3]; 15 mice in pen, Days 1 to 7): 43.0 g
- Quantity of poisoned bait eaten ([3]; 15 mice in pen, Days 8 to 14): 1.2 g
- Quantity of poisoned bait eaten ([3]; 15 mice in pen, Days 15 to 21): 0.3 g
- Mortality ([3]; 16 mice in pen (first line)): 93.8%
- Quantity of poisoned bait eaten ([3]; 16 mice in pen (first line), Days 1 to 7): 55.0 g
- Quantity of poisoned bait eaten ([3]; 16 mice in pen (first line), Days 8 to 14): 0.5 g
- Quantity of poisoned bait eaten ([3]; 16 mice in pen (first line), Days 15 to 21): 0.0 g
- Mortality ([3]; 16 mice in pen (fourth line)): 93.8%
- Quantity of poisoned bait eaten ([3]; 16 mice in pen (fourth line), Days 1 to 7): 25.7 g
- Quantity of poisoned bait eaten ([3]; 16 mice in pen (fourth line), Days 8 to 14): 2.0 g
- Quantity of poisoned bait eaten ([3]; 16 mice in pen (fourth line), Days 15 to 21): 0.3 g
- Mortality ([3]; 24 mice in pen): 91.7%
- Quantity of poisoned bait eaten ([3]; 24 mice in pen, Days 1 to 7): 42.3 g
- Quantity of poisoned bait eaten ([3]; 24 mice in pen, Days 8 to 14): 3.5 g
- Quantity of poisoned bait eaten ([3]; 24 mice in pen, Days 15 to 21): 0.7 g
- LD50 (acute oral) ([4]; aqueous suspension): 23 mg/kg animal body weight
- Observations: signs of poisoning ([4]; prior to death / after dosing): no marked signs
- Estimated Control ([5]; Site 1): 98.8%
- Amount of non-toxic bait eaten per week in period following use of poisoned bait ([5]; Site 1 (912 g per week before)): 11 g
- Amount of poisoned bait eaten ([5]; Site 1, Week 1, 0.1% by weight in bait): 368 g
- Amount of poisoned bait eaten ([5]; Site 1, Week 2): 1 g
- Estimated Control ([5]; Site 2): 98.9%
- Amount of non-toxic bait eaten per week in period following use of poisoned bait ([5]; Site 2 (897 g per week before)): 10 g
- Amount of poisoned bait eaten ([5]; Site 2, Week 1, 0.1% by weight in bait): 441 g
- Amount of poisoned bait eaten ([5]; Site 2, Week 2): 0 g
- Estimated Control ([5]; Site 3): 100%
- Amount of non-toxic bait eaten per week in period following use of poisoned bait ([5]; Site 3 (1880 g per week before)): 0 g
- Amount of poisoned bait eaten ([5]; Site 3, Week 1, 0.1% by weight in bait): 929 g
- Amount of poisoned bait eaten ([5]; Site 3, Week 2): 115 g
- Amount of poisoned bait eaten ([5]; Site 3, Week 3): 11 g
- Days to Death, Mean ([6]; female rats): 5.8 days
- Mortality ([6]; female rats): 5/5
- Days to Death, Mean ([6]; male rats): 7.2 days
- Mortality ([6]; male rats): 5/5
